From US20210352950A1 (priority 2019, published 2021)

What was measured:
[1] = test system: ferrous ion (Fe2+) in HCT116 cells; assay: Intracellular ferrous iron detection (Iron Assay Kit); format: cell-based, human; settings: HCT116, STS 24 hours + vitamin C 350 μM 3 hours, compared to all other conditions
Protocol: Intracellular ferrous ions were measured using Iron Assay Kit (Cat. #: ab83366). Ferrous ions (Fe^2+), but not ferric ions (Fe^3+) specifically reacts with […] (an iron chromogen) producing a stable colored complex, whose absorbance is measured at 593 nm. For Fe^2+ measurement experiment, cells were seeded in 10 cm petri dish (4×10^5 cells) in CTR medium. After 24 hours cells were rinsed twice in 1×PBS and CTR or STS medium was added. […] Next, cells were lysed in iron assay buffer and intracellular ferrous iron level was measured according to manufacturer protocol. Absorbance was recorded at the wavelength of 593 nm using a microplate reader (Infinite M200 TECAN). Data are expressed as fold change versus control sample.

[2] = test system: phospho-eIF2a (serine 51); assay: eIF2a phosphorylation (western blot); format: cell-based, human; settings: HCT116, STS 24 hours + vitamin C 350 μM 3 hours
Protocol: (§1) Cells were washed twice in ice-cold PBS and lysates were prepared in RIPA lysis buffer (50 mM Tris HCl pH 7.4, 150 mM NaCl, 1% NP-40, 0.25% deoxycholic acid, 1 mM EDTA) supplemented with protease and phosphatase inhibitors (protease inhibitor cocktail set III EDTA-free, Calbiochem, Cat. #: S39134; PhosStop, Roche), Samples were sonicated (bioruptor plus, diogenode) and centrifuged at 16.1 g for 30 minutes at 4° C. Tumor tissues were collected and snap frozen in liquid nitrogen immediately after mice were sacrificed, and stored in -80° C. until use. […] Protein concentrations were determined by BCA assay (Thermo Fisher Scientific, Cat. #: 23225). Proteins were diluted in 1× Laemmli sample buffer, boiled at 95° C. for 5 minutes and 30 μg of total proteins were separated by using SDS-PAGE and analyzed by western blotting by standard procedures. […] Membranes were incubated overnight at 4° C. with gentle shaking with the following primary antibodies: […] ADI-SPA894), FTH (1:1000, Cell Signaling, Cat. #: 3998), AMPK (1:1000, Cell Signaling, Cat. #: 2532), phospho-[…] AMPK (1:1000, Cell Signaling, Cat. #: 2535), eIF2a (1:1000, Cell signaling, Cat. #: 5324), phospho […] eIF2a (1:1000, Cell signaling, Cat. #: 3597), AKT (1:1000, Cell Signaling, Cat. #: 9272), phospho-[…] […] Bands intensity was quantified with NIH Image J software (version 1.48v).

[3] = test system: HO-1; assay: HO-1 protein expression in grafted HCT116 tumors; format: in vivo, mouse; settings: ad libitum or FMD cycles, vitamin C 4 g/kg i.p. twice a day
[4] = test system: KRAS wild type cell lines (SW48, HT29, PC-3, COV362), normal colon cell line (CCD841CoN) and normal fibroblasts (BJ); assay: Muse cell viability assay, KRAS wild type and normal cells; format: cell-based; settings: single agent or in combination with STS condition
[5] = test system: FTH; assay: FTH protein expression in cells (western blot); format: cell-based, human and murine; settings: HCT116, CT26.WT, STS 24 hours + vitamin C 350 μM 3 hours
Protocol: as §1

[6] = test system: ROS in HCT116 cells; assay: CellROX reactive oxygen species measurement; format: cell-based, human; settings: HCT116, vitamin C 1 mM as single intervention, 30 minutes
Protocol: Intracellular reactive-oxygen species (ROS) were measured using the CellROX oxidative stress reagents (Life Technologies, Cat. #: 10422). CellROX fluorogenic probe is designed to measure reactive-oxygen species (ROS) in live cells. […] For ROS measurement, cells were seeded in 10 cm petri dish (4×10^5 cells in CTR medium). After 24 hours cells were rinsed twice in 1×PBS and CTR or STS medium was added. 24 hours later, cells were trypsinized, resuspended in their respective media, and treated with 1 mM sodium ascorbate and 1 μM CellROX deep red reagent in the dark, for 30 minutes at 37° C. and 5% CO2. Then, fluorescence was immediately analyzed by flow cytometry (Attune NxT flow cytometer). Data were processed by Kaluza analysis software (Beckman coulter, version 2.0). Data were expressed as fold change of the median fluorescent intensity (MFI) of each treated sample versus the MFI of control sample.

## O=C1O[C@H]([C@@H](O)CO)C(O)=C1O [vitamin C, ascorbic acid]
[1]
  ferrous ion (Fe2+) level: significantly higher
[2]
  eIF2a phosphorylation level: significantly induced the phosphorylation level
[3]
  HO-1 protein expression level in grafted tumors: HO-1 up-regulation
[4]
  sensitivity to vitamin C treatment: not sensitive
[5]
  FTH protein expression level: reduces FTH protein expression level
[6]
  ROS levels: increase ROS levels
